Experimental data from US12509460B2 (Skyhawk Therapeutics, Inc., priority 2019, dated 2025).
Where two headings read alike, the source gives them in different places.

Tests used:
[1] = system: mHTT protein in GM04724 (CAG 70/20) Huntington's disease patient lymphoblast cells; test: mHTT protein assay, 2B7-MW1 assay via Mesoscale Discovery (MSD); assay type: cell-based, human; conditions: GM04724 Huntington's disease patient lymphoblasts
Outline: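 Signal from the 2B7-MW1 antibody pair on MSD, rising with polyQ length and smaller HTT fragments, measured mHTT after 48 h compound exposure (0.6 nM–10 μM) in GM04724 cells. A parallel replicate plate gave CellTiter Glo viability.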

[2] = system: SMN protein in spinal muscular atrophy (SMA) patient fibroblasts (GM03813, Coriell); test: SMN protein assay, Mesoscale Discovery (MSD); assay type: cell-based, human; conditions: SMA patient fibroblasts GM03813, 48 hours, MSD; for EC50: read-out: SMN2 protein EC50
Outline: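 Absolute SMN levels were quantified by MSD against an SMN protein standard curve (1 μg/ml to 19.5 pg/ml) run on each plate. Samples were lysates of GM03813 patient fibroblasts (7000 cells/well) treated 48 hours with compound doses from 2.5 μM down to 0.6 nM.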

[3] = Quantitative splicing assay (HTT), qPCR; assay type: cell-based, human; conditions: Homo sapiens, GM04724, 24 h, GM04724 lymphoblasts, qPCR, read-out: HTT Splicing: E49-50 EC50
Protocol: Example A9: Quantitative Splicing Assay (HTT)
GM04724 (CAG 70/20) Huntington's disease patient lymphoblasts (Coriell) are plated in 96-well v-bottom plates at 50,000 cells/well. Immediately after plating, cells are dosed with compound for 24 h at concentrations ranging from 2.5 uM to 0.15 nM (0.1% DMSO). Treated cells are lysed and cDNA synthesized using the Fast Advanced Cells-to-Ct kit (Thermofisher A35378) according to the manufacturer's instructions. 2 uL of each cDNA are used in qPCR reactions to confirm the compound-induced inclusion of a cryptic exon within intron 49 of the Huntingtin (HTT) transcripts. The qPCR reactions are prepared in 384-well plates in 10 uL volume, using TagMan™ Fast Advanced Master Mix [ThermoFisher, 4444965] with primers and probes shown in the table below. Reactions are run in a Quant studio 6 qPCR instrument with default settings.

[4] = system: SMN FL and SMN Δ7 in spinal muscular atrophy (SMA) patient fibroblasts (GM03813, Coriell); test: Quantitative splicing assay (SMN), qPCR; assay type: cell-based, human; conditions: SMA patient fibroblasts GM03813, 24 h, qPCR, read-out: SMN2 Splicing FL EC50
Protocol: Spinal muscular atrophy (SMA) patient fibroblasts (GM03813, Coriell) are plated in 96-well plates at 50,000 cells/well. […] Treated cells are lysed and cDNA synthesized using the Fast Advanced Cells-to-Ct kit (Thermofisher A35378) according to the manufacturer's instructions. 2 μL of each cDNA are used in qPCR reactions. […] Reactions are run in a Quant Studio 6 qPCR instrument with default settings.

[5] = system: MDR1-MDCK cell monolayers; test: Blood-brain-barrier (BBB) penetration potential via MDCK-MDR1 permeability assay
[6] = system: MDR1 (P-gp); test: as above; conditions: dog; for Papp A→B at 120 min, 5 μM: MDCK-MDR1, pH 7.4, MDCK-MDR1: Papp A-B, A-B direction; for Papp B→A at 120 min, 5 μM: MDCK-MDR1, pH 7.4, MDCK-MDR1: Papp B-A, B-A direction
[7] = system: MDR1; test: as above; conditions: dog, MDCK-MDR1, pH 7.4, MDCK-MDR1: Efflux, efflux ratio

| Compound | EC50 [1] [nM] | EC50 [2] [nM] | EC50 [3] [nM] | EC50 ([4]; Homo sapiens, Fibroblast, 24 h) [nM] | MDCK-MDR1: % Recov A-B ([5]; A-B direction) [%] | MDCK-MDR1: % Recov B-A ([5]; B-A direction) [%] | Papp A→B at 120 min, 5 μM [6] [nm/s] | Papp B→A at 120 min, 5 μM [6] [nm/s] | efflux ratio at 120 min, 5 μM [7] | SMN2 protein EC50 [2] | EC50 [4] [nM] | MDCK-MDR1: Papp A-B ([5]; A-B direction) | MDCK-MDR1: Papp B-A ([5]; B-A direction) | MDCK-MDR1: Efflux ([5]; efflux ratio) |
| --- | --- | --- | --- | --- | --- | --- | --- | --- | --- | --- | --- | --- | --- | --- |
| CN(c1ccc(-c2cc(F)c(-n3ccnn3)cc2O)nn1)[C@H]1C[C@@H]2CC[C@@H](N2)[C@H]1F [Compound 52B, 4-fluoro-2-(6-(((1R,2R,3S,5S)-2-fluoro-8-azabicyclo[3.2.1]octan-3-yl)(methyl)amino)pyridazin-3-yl)-5-(1H-1,2,3-triazol-1-yl)phenol] | 0.01 to 15 | 0.01 to 15 | 16 to 50 | 16 to 50 | 97 | 90 | 74.4 | 544 | 7 | – | – | – | – | – |
| CN(c1ccc(-c2cc3occc(=O)c3cc2O)nn1)[C@H]1C[C@@H]2CC[C@@H](N2)[C@H]1F [Compound 43B, 7-(6-(((1R,2R,3S,5S)-2-fluoro-8-azabicyclo[3.2.1]octan-3-yl)(methyl)amino)pyridazin-3-yl)-6-hydroxy-4H-chromen-4-one] | 0.01 to 15 | 0.01 to 15 | 0.01 to 15 | 0.01 to 15 | 66 | 48 | 23.2 | 283 | 12 | – | – | – | – | – |
| Cn1cnc2cc(-c3ccc(N(C4CC4)[C@H]4C[C@@H]5CC[C@@H](N5)[C@H]4F)nn3)c(O)cc2c1=O [Compound 56B, 7-(6-(cyclopropyl((1R,2R,3S,5S)-2-fluoro-8-azabicyclo[3.2.1]octan-3-yl)amino)pyridazin-3-yl)-6-hydroxy-3-methylquinazolin-4(3H)-one] | 0.01 to 15 | – | 0.01 to 15 | 16 to 50 | 96 | 97 | 11.2 | 512 | 46 | E (501 ≤ E ≤ 10.000) | – | – | – | – |
| CN(c1ccc(-c2ccc(-n3ccnc3)cc2O)nn1)[C@H]1C[C@@H]2CC[C@@H](N2)[C@H]1F [Compound 4B, 2-(6-(((1R,2R,3S,5S)-2-fluoro-8-azabicyclo[3.2.1]octan-3-yl)(methyl)amino)pyridazin-3-yl)-5-(1H-imidazol-1-yl)phenol] | 0.01 to 15 | 0.01 to 15 | 0.01 to 15 | 0.01 to 15 | 87 | 85 | 28.2 | 497 | 18 | – | – | – | – | – |
| CN(c1ccc(-c2ccc(-c3cc[nH]n3)cc2O)nn1)[C@@H]1C[C@H]2CC[C@H](N2)[C@@H]1F (single isomer, unassigned) [Compound 33A] | 16 to 50 | 16 to 50 | 16 to 50 | 51 to 100 | 95 | 105 | 13.3 | 407 | 31 | – | – | – | – | – |
| CCN(c1ccc(-c2ccc(-c3cn[nH]c3)cc2O)nn1)[C@@H]1C[C@H]2CC[C@H](N2)[C@@H]1F [Compound 12A, 2-(6-(ethyl((1S,2S,3R,5R)-2-fluoro-8-azabicyclo[3.2.1]octan-3-yl)amino)pyridazin-3-yl)-5-(1H-pyrazol-4-yl)phenol] | 16 to 50 | 16 to 50 | 51 to 100 | 101 to 500 | 72 | 74 | 8.9 | 236 | 27 | – | – | – | – | – |
| C#Cc1ccc(-c2ccc(N(C)[C@@H]3C[C@H]4CC[C@H](N4)[C@@H]3F)nn2)c(O)c1 [Compound 10A, 5-ethynyl-2-(6-(((1S,2S,3R,5R)-2-fluoro-8-azabicyclo[3.2.1]octan-3-yl)(methyl)amino)pyridazin-3-yl)phenol] | 0.01 to 15 | 0.01 to 15 | 0.01 to 15 | 0.01 to 15 | 55 | 67 | 116 | 190 | 2 | – | – | – | – | – |
| CN(c1ccc(-c2cc3cncnc3cc2O)nn1)[C@H]1C[C@@H]2CC[C@@H](N2)[C@H]1F [Compound 75B, 6-(6-(((1R,2R,3S,5S)-2-fluoro-8-azabicyclo[3.2.1]octan-3-yl)(methyl)amino)pyridazin-3-yl)quinazolin-7-ol] | 51 to 100 | 16 to 50 | 51 to 100 | 16 to 50 | 88 | 90 | 24.4 | 505 | 21 | – | – | – | – | – |
| Cc1cc(=O)c2cc(-c3ccc(N(C)[C@H]4C[C@@H]5CC[C@@H](N5)[C@H]4F)nn3)c(O)cc2o1 [Compound 50B, 6-(6-(((1R,2R,3S,5S)-2-fluoro-8-azabicyclo[3.2.1]octan-3-yl)(methyl)amino)pyridazin-3-yl)-7-hydroxy-2-methyl-4H-chromen-4-one] | 0.01 to 15 | 0.01 to 15 | 0.01 to 15 | 0.01 to 15 | 80 | 95 | 18.1 | 518 | 29 | – | – | – | – | – |
| CN(c1ccc(-c2ccc(-n3ccnc3)cc2O)nn1)[C@H]1C[C@@H]2CCC[C@@H](N2)[C@H]1F [Compound 11B, 2-(6-(((1R,2R,3S,5S)-2-fluoro-9-azabicyclo[3.3.1]nonan-3-yl)(methyl)amino)pyridazin-3-yl)-5-(1H-imidazol-1-yl)phenol] | 0.01 to 15 | 16 to 50 | 0.01 to 15 | 0.01 to 15 | 77 | 89 | 24 | 550 | 23 | – | – | – | – | – |
| CCc1cn(-c2ccc(-c3ccc(N(C)[C@@H]4C[C@H]5CC(F)(F)[C@@H](C4)N5)nn3)c(O)c2)cn1 [Compound 18A, 2-(6-(((1S,3R,5R)-6,6-difluoro-8-azabicyclo[3.2.1]octan-3-yl)(methyl)amino)pyridazin-3-yl)-5-(4-ethyl-1H-imidazol-1-yl)phenol] | 51 to 100 | 0.01 to 15 | 16 to 50 | 16 to 50 | 56 | 71 | 70 | 407 | 6 | – | – | – | – | – |
| COc1cc(-c2ccc(-c3ccc(N(C)[C@H]4CC5N[C@@H](C4)CC5(F)F)nn3)c(O)c2)cnn1 (single isomer, unassigned) [Compound 2B] | 0.01 to 15 | – | 0.01 to 15 | – | 54 | 84 | – | – | – | E (501 ≤ E ≤ 10.000) | 0.01 to 15 | 9.99 10^−6, cm/s | 52.8 10^−6, cm/s | 5 |
| Cc1nc2cc(O)c(-c3ccc(N(C)[C@H]4C[C@@H]5CC[C@@H](N5)[C@H]4F)nn3)cc2o1 (single isomer, unassigned) [Compound 40B] | 0.01 to 15 | – | 0.01 to 15 | 16 to 50 | 67 | 99 | 47.1 | 758 | 16 | – | – | – | – | – |
